What was measured:
recombinant human PIM1 = recombinant human PIM1 (Homo sapiens (Human), UniProt P11309); assay: PIM-1 kinase activity in cell-free in vitro assay; format: biochemical; settings: cell-free assay; for inhibition at 0.5 µM: 500 nM compound, read-out: PIM-1: % inh 500 nM
K-562 = assay: Cell proliferation modulatory activity, K-562; format: cell-based; settings: Homo sapiens, K562
MV-4-11 = assay: Cell proliferation modulatory activity, MV-4-11; format: cell-based; settings: Homo sapiens, MV4-11
recombinant human CK2 = recombinant human CK2 (Homo sapiens (Human), UniProt P68400); assay: CK2 assay (cell-free, 33P-ATP filter plate); format: biochemical; settings: cell-free assay; for IC50: 15 um ATP, read-out: CK2 (15 um ATP) IC50; for inhibition at 0.5 µM: 500 nM compound, read-out: CK2: % inh 500 nM
[1] = tested on: HCT-116 human colorectal carcinoma cells; assay: Cell-proliferation assay using Alamar Blue dye; format: cell-based; settings: Homo sapiens, HCT-116, HCT-116, second HCT-116 column (c8); read-out: HCT-116 (uM), cell proliferation modulatory activity;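 further: cells exposed to compound for about 4 days, then Alamar Blue added and dye fluorescence read after about 4 h, compared with medium-only control wells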
Jurkat = assay: Cell proliferation modulatory activity, Jurkat; format: cell-based; settings: Homo sapiens

recombinant human PIM1, sequence (P11309 whole entry): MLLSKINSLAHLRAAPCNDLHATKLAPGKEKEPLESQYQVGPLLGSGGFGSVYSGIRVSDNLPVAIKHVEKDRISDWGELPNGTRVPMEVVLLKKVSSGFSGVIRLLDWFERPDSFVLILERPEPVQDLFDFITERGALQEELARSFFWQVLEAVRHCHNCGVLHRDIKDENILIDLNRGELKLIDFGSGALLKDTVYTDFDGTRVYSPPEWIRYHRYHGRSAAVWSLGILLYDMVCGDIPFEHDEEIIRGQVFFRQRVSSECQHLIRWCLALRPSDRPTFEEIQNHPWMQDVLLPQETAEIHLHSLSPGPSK
recombinant human CK2, sequence (P68400 whole entry): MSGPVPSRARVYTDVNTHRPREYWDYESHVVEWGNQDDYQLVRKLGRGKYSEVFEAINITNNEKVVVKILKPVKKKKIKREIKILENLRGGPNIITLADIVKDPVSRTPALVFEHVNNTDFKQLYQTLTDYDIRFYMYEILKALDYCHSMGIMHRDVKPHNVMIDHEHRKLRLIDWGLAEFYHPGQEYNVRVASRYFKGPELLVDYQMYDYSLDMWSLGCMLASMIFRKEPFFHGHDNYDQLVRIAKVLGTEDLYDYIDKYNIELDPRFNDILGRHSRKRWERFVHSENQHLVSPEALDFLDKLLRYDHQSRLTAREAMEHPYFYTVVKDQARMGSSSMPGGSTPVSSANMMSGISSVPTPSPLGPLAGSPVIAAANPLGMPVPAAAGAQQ
recombinant human CK2, sequence (P67870 whole entry partner): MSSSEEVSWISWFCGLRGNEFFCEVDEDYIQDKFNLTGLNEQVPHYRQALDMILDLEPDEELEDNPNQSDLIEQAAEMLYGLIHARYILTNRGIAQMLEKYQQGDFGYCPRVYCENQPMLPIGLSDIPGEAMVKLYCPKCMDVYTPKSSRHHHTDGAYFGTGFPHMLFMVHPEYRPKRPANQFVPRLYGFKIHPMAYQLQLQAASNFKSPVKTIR

Structure (SMILES) | inhibition at 0.5 µM (recombinant human PIM1) | IC50 (K-562) | IC50 (MV-4-11) | IC50 (recombinant human CK2) | IC50 [1] | IC50 (Jurkat) | IC50 (recombinant human PIM1) | inhibition at 0.5 µM (recombinant human CK2)
O=C(O)c1ccc2c(c1)nc(Nc1ccccc1)c1nc(NCCO)ncc12 | 45.6% | > 10 µM | > 10 µM | – | – | – | – | –
C#Cc1cccc(Nc2nc3cc(C(=O)O)ccc3c3cnc(NC4CCNCC4)nc23)c1 | 29% | > 10 µM | 0.237 µM | – | – | – | – | –
COCCNc1ncc2c(n1)c(NC1CC1)nc1cc(C(=O)O)ccc12 | 17.2% | – | – | 13 nM | > 10 µM | 13.7 µM | – | –
O=C(O)c1ccc2c(c1)nc(NC1CC1)c1nc(NCc3cccnc3)ncc12 | – | – | – | 23 nM | > 10 µM | > 50 µM | – | –
O=C(O)c1ccc2c(c1)nc(NC1CC1)c1nc(Nc3cccc(Cl)c3)ncc12 | 23.2% | – | – | 95 nM | > 10 µM | 2.17 µM | – | –
O=C(O)c1ccc2c(c1)nc(NC1CC1)c1nc(Nc3cccc(F)c3F)ncc12 | 71.7% | – | – | 17 nM | > 10 µM | 2.38 µM | – | –
O=C(O)c1ccc2c(c1)nc(NC1CC1)c1nc(NCCCO)ncc12 | -15.9% | – | – | 164 nM | > 10 µM | > 50 µM | – | –
CCOCCNc1ncc2c(n1)c(NC1CC1)nc1cc(C(=O)O)ccc12 | -8.19% | – | – | 58 nM | > 10 µM | 18.1 µM | – | –
CC(Nc1ncc2c(n1)c(NC1CC1)nc1cc(C(=O)O)ccc12)c1ccccc1 (stereo not shown) | -32.7% | – | – | 228 nM | > 10 µM | 28.7 µM | – | –
CC(C)OCCCNc1ncc2c(n1)c(NC1CC1)nc1cc(C(=O)O)ccc12 | -40.2% | – | – | 74 nM | > 10 µM | 16.6 µM | – | –
O=C(O)c1ccc2c(c1)nc(NC1CC1)c1nc(NCC3CCCO3)ncc12 (stereo not shown) | 10.5% | – | – | 42 nM | > 10 µM | 21.5 µM | – | –
CCOCCCNc1ncc2c(n1)c(NC1CC1)nc1cc(C(=O)O)ccc12 | 9.55% | – | – | 45 nM | 3.64 µM | 2.02 µM | – | –
CC(C)OCCNc1ncc2c(n1)c(NC1CC1)nc1cc(C(=O)O)ccc12 | -2.46% | – | – | 64 nM | > 10 µM | 7.37 µM | > 1100 nM | –
O=C(O)c1ccc2c(c1)nc(NC1CC1)c1nc(NCC3CC3)ncc12 | 15.7% | – | – | 8 nM | > 10 µM | 4.41 µM | – | –
CC(C)C(CO)Nc1ncc2c(n1)c(NC1CC1)nc1cc(C(=O)O)ccc12 (stereo not shown) | -8.31% | – | – | 167 nM | > 10 µM | 44.7 µM | – | –
NC(=O)c1ccc2c(c1)nc(NC1CC1)c1nc(NC3CC3)ncc12 | -10.8% | – | – | 135 nM | 1.33 µM | 0.504 µM | – | –
CNC(=O)c1ccc2c(c1)nc(NC1CC1)c1nc(NC3CC3)ncc12 | -16.2% | – | – | > 750 nM | 1.08 µM | 0.618 µM | – | –
O=C(NCc1ccccn1)c1ccc2c(c1)nc(NC1CC1)c1nc(NC3CC3)ncc12 | -17.1% | – | – | > 750 nM | 3.07 µM | 1.95 µM | – | –
COCCNC(=O)c1ccc2c(c1)nc(NC1CC1)c1nc(NC3CC3)ncc12 | -16.1% | – | – | > 750 nM | 3.87 µM | 1.64 µM | – | –
O=C(Nc1ccccc1)c1ccc2c(c1)nc(NC1CC1)c1nc(NC3CC3)ncc12 | -5.17% | – | – | > 750 nM | 3.16 µM | 0.989 µM | – | –
O=C(NCCN1CCOCC1)c1ccc2c(c1)nc(NC1CC1)c1nc(NC3CC3)ncc12 | 2.65% | – | – | > 750 nM | > 10 µM | 1.43 µM | – | –
NCCNC(=O)c1ccc2c(c1)nc(NC1CC1)c1nc(NC3CC3)ncc12 | 3.79% | – | – | > 750 nM | > 10 µM | 2.36 µM | – | –
CN(C)C(=O)c1ccc2c(c1)nc(NC1CC1)c1nc(NC3CC3)ncc12 | 1.62% | – | – | > 750 nM | 1.12 µM | 0.583 µM | – | –
O=C(O)c1ccc2c(c1)nc(NC1CC1)c1nc(Nc3ccc(F)cc3F)ncc12 | – | > 10 µM | 2.29 µM | – | > 10 µM | – | – | –
O=C(O)c1ccc2c(c1)nc(NC1CC1)c1nc(Nc3ccc(F)c(F)c3)ncc12 | 14.1% | > 10 µM | 1.86 µM | – | > 10 µM | – | – | 96.3%
COC(=O)c1ccc2c(c1)nc(NC1CC1)c1nc(C#N)ncc12 | 2.81% | 1.34 µM | – | – | > 10 µM | – | – | –
Cc1cnc(CNC(=O)c2ccc3c(c2)nc(N2CCN(C)CC2)c2ccsc23)cn1 | 37.3% | > 10 µM | > 10 µM | – | > 10 µM | – | – | -15%

— patent US8168651B2, “Protein kinase modulators” (Cylene Pharmaceuticals, Inc., priority 2008, dated 2012)
